In patent US9662323B2, “Compounds having muscarinic receptor antagonist and beta2 adrenergic receptor agonist activity” (CHIESI FARMACEUTICI S.p.A., priority 2015, dated 2017):
Like-named read-outs stand apart in the source and are kept apart here.

Legend:
Human M3 receptor = target: T1, Human M3 receptor (Homo sapiens, UniProt P20309); assay: M3 Receptor Radioligand Binding Assay
T1 construct: purchased Perkin Elmer
Method: Biological Characterization M3 Receptor Radioligand Binding Assay
The assay was carried out in 96-well polypropylene plates in a volume of 250 ul. […] The final assay concentration of DMSO was 0.5% (v/v). The plates were sealed and incubated for 2 h at room temperature on an orbital shaker (slow speed). Membranes were harvested onto 96-well unifilter GF/C filter plates pre-treated with 0.5% polyethyleneimine (v/v), using a filter manifold, washed four times with 200 ul of assay buffer. The plates were dried before addition of 50 μl of microscint-0, sealed then read in a Trilux Microbeta scintillation counter.

Human β2 adrenoceptor = target: T2, Human β2 adrenoceptor (Homo sapiens, UniProt P07550); assay: β2 Adrenoceptor Radioligand Binding Assay
T2 construct: purchased Perkin Elmer
T2 sequence (P07550 whole entry): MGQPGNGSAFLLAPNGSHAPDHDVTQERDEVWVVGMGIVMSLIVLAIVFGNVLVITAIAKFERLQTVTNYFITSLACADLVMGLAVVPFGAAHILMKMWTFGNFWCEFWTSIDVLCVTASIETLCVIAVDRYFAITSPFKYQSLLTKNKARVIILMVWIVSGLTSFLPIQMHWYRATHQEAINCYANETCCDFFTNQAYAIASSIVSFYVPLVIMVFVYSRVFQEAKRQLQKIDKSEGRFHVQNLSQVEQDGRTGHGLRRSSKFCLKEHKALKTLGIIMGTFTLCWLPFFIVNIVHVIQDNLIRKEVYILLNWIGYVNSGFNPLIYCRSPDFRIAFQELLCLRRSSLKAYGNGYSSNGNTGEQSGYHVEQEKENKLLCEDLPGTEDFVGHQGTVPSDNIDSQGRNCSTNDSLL
Method: β2 Adrenoceptor Radioligand Binding Assay
The assay was carried out in 96-well polypropylene plates in a volume of 200 ul. The assay buffer used was 25 mM HEPES, 0.5% BSA (w/v), 1 mM EDTA, 0.02% ascorbic acid (v/v), (pH 7.4). The final assay concentration of DMSO was 0.5% (v/v). The plates were sealed and incubated for 1 h at room temperature on an orbital shaker (slow speed). Membranes were harvested onto 96-well unifilter GF/C filter plates pre-treated with 0.5% polyethyleneimine (v/v), using a filter manifold, washed six times with 200 ul of wash buffer containing 10 mM HEPES and 500 mM NaCl. The plates were dried before addition of 50 μl of microscint-0, sealed then read in a Trilux Microbeta scintillation counter. IC50 values are determined from competition curves using a non-linear curve fitting program. Ki values were calculated from IC50 values by the Cheng and Prusoff equation.

[1] = human M3 receptor membranes, [3H]-N-methyl scopolamine, read-out: M3 binding affinity (Ki class)
[2] = human β2 adrenoceptor membranes, 125-I Cyanopindolol, read-out: B2 binding affinity (Ki class)

T1 sequence (P20309 whole entry): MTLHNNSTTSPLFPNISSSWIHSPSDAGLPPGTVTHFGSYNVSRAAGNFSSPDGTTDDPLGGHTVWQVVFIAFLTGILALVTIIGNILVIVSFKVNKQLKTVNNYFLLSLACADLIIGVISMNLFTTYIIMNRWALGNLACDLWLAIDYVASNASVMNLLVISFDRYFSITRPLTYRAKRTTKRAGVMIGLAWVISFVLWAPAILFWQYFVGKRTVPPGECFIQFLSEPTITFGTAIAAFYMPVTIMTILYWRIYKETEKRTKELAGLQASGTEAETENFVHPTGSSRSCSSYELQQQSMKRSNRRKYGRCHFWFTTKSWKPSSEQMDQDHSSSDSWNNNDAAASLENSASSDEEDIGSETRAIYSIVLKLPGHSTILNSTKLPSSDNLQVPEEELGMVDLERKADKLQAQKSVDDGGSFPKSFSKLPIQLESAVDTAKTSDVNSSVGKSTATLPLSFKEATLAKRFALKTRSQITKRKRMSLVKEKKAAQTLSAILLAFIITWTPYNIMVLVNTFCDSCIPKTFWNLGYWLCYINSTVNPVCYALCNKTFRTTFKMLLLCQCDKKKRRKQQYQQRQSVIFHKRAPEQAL

Row | Structure (SMILES) | Ki (Human M3 receptor; [1]) [nM] | Ki (Human β2 adrenoceptor; [2]) [nM] | Ki (Human M3 receptor) [nM] | Ki (Human β2 adrenoceptor) [nM]
1 | O=C(Cc1ccc(CC(=O)N(CCCNC[C@H](O)c2ccc(O)c3[nH]c(=O)ccc23)Cc2cccc(F)c2)cc1)N1CCC(C(=O)O[C@H]2CN3CCC2CC3)(c2ccccc2)CC1 [Compound 42, (R)-Quinuclidin-3-yl 1-(2-(4-(2-((3-fluorobenzyl)(3-(((R)-2-hydroxy-2-(8-hydroxy-2-oxo-1,2-dihydroquinolin-5-yl)ethyl)amino)propyl)amino)-2-oxoethyl)phenyl)acetyl)-4-phenylpiperidine-4-carboxylate] | < 1 | < 1 | – | –
2 | O=C(c1cccc(OCCCCCNC[C@H](O)c2ccc(O)c3[nH]c(=O)ccc23)c1)N1CC(C(=O)O[C@H]2CN3CCC2CC3)(c2ccccc2)C1 [Compound 4A, (R)-Quinuclidin-3-yl 1-(3-((5-(((R)-2-hydroxy-2-(8-hydroxy-2-oxo-1,2-dihydroquinolin-5-yl)ethyl)amino)pentyl)oxy)benzoyl)-3-phenylazetidine-3-carboxylate] | 1 to 10 | < 1 | – | –
3 | O=C(Cc1ccc(CC(=O)N2CCC(C(=O)O[C@H]3CN4CCC3CC4)(c3ccccc3)CC2)cc1)NCCCNC[C@H](O)c1ccc(O)c2[nH]c(=O)ccc12 [Compound 46, (R)-Quinuclidin-3-yl 1-(2-(4-(2-((3-(((R)-2-hydroxy-2-(8-hydroxy-2-oxo-1,2-dihydroquinolin-5-yl)ethyl)amino)propyl)amino)-2-oxoethyl)phenyl)acetyl)-4-phenylpiperidine-4-carboxylate] | > 10 | > 10 | – | –
4 | Cc1ccccc1CN(CCCNC[C@H](O)c1ccc(O)c2[nH]c(=O)ccc12)C(=O)Cc1ccc(CC(=O)N2CCC(C(=O)O[C@H]3CN4CCC3CC4)(c3ccccc3)CC2)cc1 [Compound 34, (R)-Quinuclidin-3-yl 1-(2-(4-(2-((3-(((R)-2-hydroxy-2-(8-hydroxy-2-oxo-1,2-dihydroquinolin-5-yl)ethyl)amino)propyl)(2-methylbenzyl)amino)-2-oxoethyl)phenyl)acetyl)-4-phenylpiperidine-4-carboxylate] | < 1 | < 1 | – | –
5 | O=C(CCc1ccc(OCc2ccc(CNC[C@H](O)c3ccc(O)c4[nH]c(=O)ccc34)cc2)cc1)N1CC(C(=O)O[C@H]2CN3CCC2CC3)(c2ccccc2)C1 [Compound 13A, (R)-Quinuclidin-3-yl 1-(3-(4-((4-((((R)-2-hydroxy-2-(8-hydroxy-2-oxo-1,2-dihydroquinolin-5-yl)ethyl)amino)methyl)benzyl)oxy)phenyl)propanoyl)-3-phenylazetidine-3-carboxylate] | 1 to 10 | 1 to 10 | – | –
6 | O=C(c1ccc(OCCCCCCNC[C@H](O)c2ccc(O)c3[nH]c(=O)ccc23)cc1)N1CC(C(=O)O[C@H]2CN3CCC2CC3)(c2ccc(F)cc2)C1 [Compound 3A, (R)-Quinuclidin-3-yl 3-(4-fluorophenyl)-1-(4-((6-(((R)-2-hydroxy-2-(8-hydroxy-2-oxo-1,2-dihydroquinolin-5-yl)ethyl)amino)hexyl)oxy)benzoyl)azetidine-3-carboxylate] | 1 to 10 | < 1 | – | –
7 | O=C(Cc1ccc(CC(=O)N(CCCNC[C@H](O)c2ccc(O)c3[nH]c(=O)ccc23)Cc2ccccc2N2CCOCC2)cc1)N1CCC(C(=O)O[C@H]2CN3CCC2CC3)(c2ccccc2)CC1 [Compound 44, (R)-Quinuclidin-3-yl 1-(2-(4-(2-((3-(((R)-2-hydroxy-2-(8-hydroxy-2-oxo-1,2-dihydroquinolin-5-yl)ethyl)amino)propyl)(2-morpholinobenzyl)amino)-2-oxoethyl)phenyl)acetyl)-4-phenylpiperidine-4-carboxylate] | < 1 | 1 to 10 | – | –
8 | Cc1cc(CCC(=O)N2CCC(C(=O)O[C@H]3CN4CCC3CC4)(c3ccccc3)CC2)ccc1OCCCCCNC[C@H](O)c1ccc(O)c2[nH]c(=O)ccc12 [Compound 17, (R)-Quinuclidin-3-yl 1-(3-(4-((5-(((R)-2-hydroxy-2-(8-hydroxy-2-oxo-1,2-dihydroquinolin-5-yl)ethyl)amino)pentyl)oxy)-3-methylphenyl)propanoyl)-4-phenylpiperidine-4-carboxylate] | < 1 | < 1 | – | –
9 | CCN(CCCNC[C@H](O)c1ccc(O)c2[nH]c(=O)ccc12)C(=O)c1ccc(CCC(=O)N2CCC(C(=O)O[C@H]3CN4CCC3CC4)(c3ccccc3)CC2)cc1 [Compound 52, (R)-Quinuclidin-3-yl 1-(3-(4-(ethyl(3-(((R)-2-hydroxy-2-(8-hydroxy-2-oxo-1,2-dihydroquinolin-5-yl)ethyl)amino)propyl)carbamoyl)phenyl)propanoyl)-4-phenylpiperidine-4-carboxylate] | 1 to 10 | < 1 | – | –
10 | O=C(c1ccc(C(=O)N(CCCNC[C@H](O)c2ccc(O)c3[nH]c(=O)ccc23)Cc2ccccc2)s1)N1CCC(C(=O)O[C@H]2CN3CCC2CC3)(c2ccccc2)CC1 [Compound 28, (R)-Quinuclidin-3-yl 1-(5-(benzyl(3-(((R)-2-hydroxy-2-(8-hydroxy-2-oxo-1,2-dihydroquinolin-5-yl)ethyl)amino)propyl)carbamoyl)thiophene-2-carbonyl)-4-phenylpiperidine-4-carboxylate] | 1 to 10 | < 1 | – | –
11 | O=C(CCc1ccc(OCCCCNC[C@H](O)c2ccc(O)c3[nH]c(=O)ccc23)cc1)N1CCC(C(=O)O[C@H]2CN3CCC2CC3)(c2ccccc2)CC1 [Compound 32, (R)-Quinuclidin-3-yl 1-(3-(4-(4-(((R)-2-hydroxy-2-(8-hydroxy-2-oxo-1,2-dihydroquinolin-5-yl)ethyl)amino)butoxy)phenyl)propanoyl)-4-phenylpiperidine-4-carboxylate] | < 1 | < 1 | – | –
12 | Cc1cccc(CN(CCCNC[C@H](O)c2ccc(O)c3[nH]c(=O)ccc23)C(=O)Cc2ccc(CC(=O)N3CCC(C(=O)O[C@H]4CN5CCC4CC5)(c4ccccc4)CC3)cc2)c1 [Compound 35, (R)-Quinuclidin-3-yl 1-(2-(4-(2-((3-(((R)-2-hydroxy-2-(8-hydroxy-2-oxo-1,2-dihydroquinolin-5-yl)ethyl)amino)propyl)(3-methylbenzyl)amino)-2-oxoethyl)phenyl)acetyl)-4-phenylpiperidine-4-carboxylate] | < 1 | < 1 | – | –
13 | O=C(Cc1ccc(CC(=O)N(CCCNC[C@H](O)c2ccc(O)c3[nH]c(=O)ccc23)Cc2cccc(C(F)(F)F)c2)cc1)N1CCC(C(=O)O[C@H]2CN3CCC2CC3)(c2ccccc2)CC1 [Compound 37, (R)-Quinuclidin-3-yl 1-(2-(4-(2-((3-(((R)-2-hydroxy-2-(8-hydroxy-2-oxo-1,2-dihydroquinolin-5-yl)ethyl)amino)propyl)(3-(trifluoromethyl)benzyl)amino)-2-oxoethyl)phenyl)acetyl)-4-phenylpiperidine-4-carboxylate] | < 1 | 1 to 10 | – | –
14 | O=C(Cc1cccc(OCCCCCNC[C@H](O)c2ccc(O)c3[nH]c(=O)ccc23)c1)N1CCC(C(=O)O[C@H]2CN3CCC2CC3)(c2ccccc2)CC1 [Compound 11, (R)-Quinuclidin-3-yl 1-(2-(3-((5-(((R)-2-hydroxy-2-(8-hydroxy-2-oxo-1,2-dihydroquinolin-5-yl)ethyl)amino)pentyl)oxy)phenyl)acetyl)-4-phenylpiperidine-4-carboxylate] | 1 to 10 | < 1 | – | –
15 | O=C(c1ccc(CN(Cc2ccc(CNC[C@H](O)c3ccc(O)c4[nH]c(=O)ccc34)cc2)S(=O)(=O)c2ccccc2)cc1)N1CCC(C(=O)O[C@H]2CN3CCC2CC3)(c2ccccc2)CC1 [Compound 61, (R)-Quinuclidin-3-yl 1-(4-((N-(4-((((R)-2-hydroxy-2-(8-hydroxy-2-oxo-1,2-dihydroquinolin-5-yl)ethyl)amino)methyl)benzyl)phenylsulfonamido)-methyl)benzoyl)-4-phenylpiperidine-4-carboxylate] | – | – | < 1 | > 10
16 | O=C(Cc1ccc(OCCCCCNC[C@H](O)c2ccc(O)c3[nH]c(=O)ccc23)cc1)N1CCC(C(=O)O[C@H]2CN3CCC2CC3)(c2ccccc2)CC1 [Compound 8, (R)-Quinuclidin-3-yl 1-(2-(4-((5-(((R)-2-hydroxy-2-(8-hydroxy-2-oxo-1,2-dihydroquinolin-5-yl)ethyl)amino)pentyl)oxy)phenyl)acetyl)-4-phenylpiperidine-4-carboxylate] | < 1 | < 1 | – | –
17 | O=C(Cc1ccc(OCCCCCNC[C@H](O)c2ccc(O)c3[nH]c(=O)ccc23)cc1)N1CC(C(=O)O[C@H]2CN3CCC2CC3)(c2ccccc2)C1 [Compound 6A, (R)-Quinuclidin-3-yl 1-(2-(4-((5-(((R)-2-hydroxy-2-(8-hydroxy-2-oxo-1,2-dihydroquinolin-5-yl)ethyl)amino)pentyl)oxy)phenyl)acetyl)-3-phenylazetidine-3-carboxylate] | 1 to 10 | < 1 | – | –
18 | Cc1ccc(CN(CCCNC[C@H](O)c2ccc(O)c3[nH]c(=O)ccc23)C(=O)Cc2ccc(CC(=O)N3CCC(C(=O)O[C@H]4CN5CCC4CC5)(c4ccccc4)CC3)cc2)cc1 [Compound 33, (R)-Quinuclidin-3-yl 1-(2-(4-(2-((3-(((R)-2-hydroxy-2-(8-hydroxy-2-oxo-1,2-dihydroquinolin-5-yl)ethyl)amino)propyl)(4-methylbenzyl)amino)-2-oxoethyl)phenyl)acetyl)-4-phenylpiperidine-4-carboxylate] | < 1 | 1 to 10 | – | –
